We go through two compounds from US10987351B2, “RORgamma modulators and uses thereof” (Genfit, priority 2017, dated 2021).

For orientation: IC50 means the concentration that gives 50% inhibition.

The target in experiment [1] is T1, human RORγt (Homo sapiens, UniProt P51449).
T1 sequence (P51449 1-497 isoform P51449-2): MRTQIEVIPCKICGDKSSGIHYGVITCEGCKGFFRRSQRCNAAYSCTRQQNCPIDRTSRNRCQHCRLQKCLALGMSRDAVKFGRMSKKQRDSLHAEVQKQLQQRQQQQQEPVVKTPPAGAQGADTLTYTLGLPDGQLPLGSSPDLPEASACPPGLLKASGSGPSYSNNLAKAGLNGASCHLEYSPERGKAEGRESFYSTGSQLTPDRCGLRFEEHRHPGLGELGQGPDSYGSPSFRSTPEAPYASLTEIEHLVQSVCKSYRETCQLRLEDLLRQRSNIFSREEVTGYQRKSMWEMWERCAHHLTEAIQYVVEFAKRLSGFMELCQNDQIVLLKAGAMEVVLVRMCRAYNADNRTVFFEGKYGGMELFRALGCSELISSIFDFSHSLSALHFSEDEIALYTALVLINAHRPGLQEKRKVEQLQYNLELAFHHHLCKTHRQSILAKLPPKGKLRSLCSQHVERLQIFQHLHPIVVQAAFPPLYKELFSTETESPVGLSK
Put plainly: IL-17 secretion from EL4 murine lymphoma cells overexpressing human RORγt. The class given is cell-based. To be noted: human RORγt-transfected EL4 cells, PMA and ionomycin stimulation; read-out: IC50, inhibition of IL-17 secretion. As for the experimental part: Murine EL-4 lymphoma cell line overexpressing human RORγt was used in this functional assay to assess compound ability to inhibit IL-17 cytokine secretion.
EL-4 cells are maintained in a standard culture medium RPMI supplemented with 10% fetal calf serum, 1% sodium pyruvate, 1% essential amino acids and 1% antibiotics at 37° C. in a humidified atmosphere of 5% CO02 and 95% air. Culture medium was changed every 2 days. EL4 cells were transfected with a plasmid encoding hRORγt (sequence identical to published sequence NM 001001523). […] Briefly, 1 μg of DNA/1 million cells was served to transfect EL-4 cells. Cell/DNA suspension was transferred into certified cuvette and the electroporation of RORγt plasmid was carried out using appropriate Nucleofector® program.
Cells were seeded in 96 well plates at a density of 150000 cells/I well then treated with compounds of this invention at indicated concentrations and incubated for 24 hours at 37° C. in a humidified atmosphere of 5% CO2 and 95% air. EL-4 cells were pretreated with test compounds (RORγ modulators) and stimulated with PMA (10 ng/mL) and ionomycin (1 μM final concentration) in the presence of test compound concentrations for additional 24 h at 37° C. in a humidified atmosphere of 5% CO2 and 95% air. Subsequently, supernatants were collected (after centrifugation at 300 g for 10 minutes) to determine the concentrations of IL-17 by HTRF (CisBio, France) or ELISA (R&D Systems Europe) according to the manufacturer's protocols.

The target in experiment [2] is T1, human RORγt. Put plainly: RORE Luciferase/RORγt transactivation assay. The class given is cell-based. More on the design: the full-length cDNA of human RORγt; V5-His (encoded by the vector); expressed in transfected cells; host or cells: COS-7 (monkey kidney). To be noted: COS-7 cells transfected with human IL-17 promoter luciferase reporter and RORγt plasmid, 20 h; read-out: IC50, RORγt activity inhibition (luciferase reporter). As for the experimental part: It is well known that RORγ binds to a conserved non-coding sequence (CNS) enhancer element in the IL-17 promoter.
Culture medium was changed every 2 days.
The 4.3 Kb human IL-17 promoter containing the RORγ-specific CNS enhancer element was PCR amplified from human genomic DNA and cloned into a pGL3-TKLuc2Cp reporter plasmid.
The luciferase reporter plasmid and the RORγt overexpression plasmid were transfected into COS-7 cell line using 4 μLJetPEI™/μg of DNA. Briefly, 150 ng of DNA (ration 1/2 between RORE-Tk Luc2Cp and cDNA RORγt or the empty vector for the negative control) was served to transfect adherent COS-7 cells in a […] culture flask, in complete medium (see cos-7 cell line culture).
Cells were then detached (using trypsin) and washed by centrifugation at 300 g for 10 minutes. Cell pellet was resuspended in serum free/phenol red free DMEM and seeded in 384 well plates at a density of 10000 cells/well and then incubated for 4 h at 37° C.
Compounds were dissolved in 100% DMSO to obtain 10 mM stock solutions. For each compound, test concentrations were diluted in serum free/phenol red free DMEM using the Genesis Freedom 200™ (TECAN) and added to the cells to obtain a 0.3% DMSO final concentration (in a final volume of 40 μL per well).
The luciferase activity was then measured with 40 μL/well steady-Glo Luciferase assay system (Promega, Madison, Wis.) and after incubation at room temperature for 30 minutes. The luminescence was estimated using the Ultra384 reader (TECAN). Data were collected and analyzed using GraphPad Prism software (GraphPad Software V5.02, San Diego Calif. USA). IC50 in μM and Emax in % were reported for each compound.
In general terms: A reporter such as luciferase makes a cellular process visible.

Experiment [3] deals with T2, RORγt ligand-binding domain (RORγt-LBD) (Homo sapiens, UniProt P51449).
T2 construct: 20 nM recombinantly expressed RORγ-LBD fused to GST
T2 sequence (P51449 269-508 limits assumed): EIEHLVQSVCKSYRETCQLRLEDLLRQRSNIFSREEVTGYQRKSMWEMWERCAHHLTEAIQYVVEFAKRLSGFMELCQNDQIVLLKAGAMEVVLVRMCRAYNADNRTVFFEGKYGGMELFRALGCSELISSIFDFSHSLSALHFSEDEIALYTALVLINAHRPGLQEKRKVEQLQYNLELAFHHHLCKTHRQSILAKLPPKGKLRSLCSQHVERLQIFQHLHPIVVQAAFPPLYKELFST
Put plainly: Time-resolved FRET (TR-FRET) RORγt coactivator assay. The experiment is classed as biochemical. To be noted: GST-RORγ-LBD, biotinylated RIP140 peptide, 2 hours; read-out: IC50, coactivator-RORγt binding inhibition (TR-FRET). From the text:
Time-resolved FRET (TR-FRET) RORγt coactivator assay was used to identify RORγ modulator compounds with ligand-dependent coactivator displacement. The assay uses a d2-labeled anti-GST antibody, synthetic N-terminally biotinylated peptide which is derived from nuclear receptor coactivator protein RIP140, and a RORγt ligand-binding domain (RORγt-LBD) that is tagged with glutathione-S-transferase (GST). The influence of compounds on the RORγ-peptide interaction relies on the binding dependent energy transfer from a donor to an acceptor fluorophor attached to the binding partner of interest. […] For reduction of background from compound fluorescence, TR-FRET method makes use of generic fluorophore labels and time resolved detection.
The assays were done in a final volume of 20 μl in a 384 well plate in a CHAPS buffer (2 mM CHAPS; 1 mM DTT, 2 mM EDTA; 0.1% BSA), containing 20 nM recombinantly expressed RORγ-LBD fused to GST, 30 nM N-terminally biotinylated peptide, 1 nM streptavidin-terbium conjugate and 20 nM d2 labeled-anti-GST. Test compounds were diluted using 10 mM stock solution. The range of the final compound concentrations used in this test was from 0.3 nM to 30 μM (logarithmic scale). DMSO content of the samples was kept at 1%. The assay was equilibrated for 2 hours in the dark at room temperature in 384 well plates (Falcon). The signal was detected by an Ultra384 reader (TECAN). […] Compounds that promote coactivator displacement induce a concentration-dependent decrease in time-resolved fluorescent signal. Data were collected and analyzed using GraphPad Prism software (GraphPad Software V5.02, San Diego Calif. USA). IC50 in μM and Emax in % were reported for each compound.
A general note: In TR-FRET formats the signal depends on donor and acceptor labels being close together.

The test system of experiment [4] is patients with moderate to severe psoriasis. To be noted: cited from earlier work.

The structures appear in SMILES notation.

With `CC(=O)N1CCN(c2cccc(CC(=O)NC(c3ccc(C)o3)c3ccc(C)cc3N3CCCCC3)c2)CC1` (centres unmarked) [Cpd.20, 2-[3-(4-acetylpiperazin-1-yl)phenyl]-N-{[4-methyl-2-(piperidin-1-yl)phenyl](5-methylfuran-2-yl)methyl}acetamide], the IC50 (at human RORγt [1]; on human RORγt [2]; in experiment [3]) was < 100 nM in each case.
Regarding `CCS(=O)(=O)c1ccc(CNC(=O)c2cnc3c(c2)CN(C[C@H]2CC[C@H](C(F)(F)F)CC2)[C@H]3C(C)C)nc1` [VTP-43742], the “reduction in the Psoriasis Area Severity Index (PASI) score relative to placebo” value in experiment [4] (350 mg dose group) was 24%. The “placebo-adjusted PASI score reduction” value in experiment [4] (700 mg dose group) is 30%.
